# Measurements: US20090258951A1, “Use of vanillyl alcohol for the treatment of Parkinson's disease” (Red Pharma & Biotech Research Corporation, priority 2008, published 2009)
# Legend:
# [1] = system: rat with right-side substantia nigra destroyed by 6-OHDA (6-hydroxydopamine); format: in vivo
# Description: (§1) After affixing rear head of a rat with a three-dimensional tightener and anaesthetizing the rat, then inject substantia nigra located at the right side of brain of the rat with 6-OHDA (6-hydroxydopamine) to destroy substantia nigra to make the rat produce tremor, rigidity, bradykinesia etc. Next, after the rat returns to and stays in room for 2 weeks, it is given amphetamine (5 mg/1000 g) via belly injection and then starts rotating round an animal gyroscope, wherein the number of rotations will be recorded (if the number of rotations exceeds 300 rotations per an hour, it means that the amphetamine has effected on the rat).
# The substantia nigra of the brain of the rat is a tissue to release dopamine so that the injected amphetamine may accelerate the substantia nigra to release a large amount of dopamine. […]
# With reference to FIG. 7, the rat is given with L-DOPA about 50 mg per 1 kg of body weight thereof via belly injection and further provided with Vanillyl alcohol about 30 mg. […] Next, the rat rotates round an animal gyroscope on 28th, 36th, and 52nd day respectively for right turn (clockwise) and left turn (counterclockwise), in which the number of rotations will be recorded.
# [2] = system: rat with right-side substantia nigra destroyed by 6-OHDA (6-hydroxydopamine); test: Amphetamine-induced rotation of rat with substantia nigra destroyed by 6-OHDA (animal gyroscope); format: in vivo
# Description: as §1
# The substantia nigra of the brain of the rat is a tissue to release dopamine so that the injected amphetamine may accelerate the substantia nigra to release a large amount of dopamine. However, the substantia nigra located at the right side of brain of the rat has been destroyed by the 6-OHDA (6-hydroxydopamine) already unable to release dopamine any more, although the rat is injected with amphetamine for stimulation but the left side of body movement which is controlled by the right side of brain remains rigidity and bradykinesia. On the other hand, the substantia nigra located at the left side of brain of the rat is in normal condition without any injury so hyperkinesia occurs on the right side of body movement which is controlled by the left side of brain due to acceleration of amphetamine, that's why the rat keeps rotating for right turn (clockwise) and even uncontrollably.
# With reference to FIG. 4, the rat is given with amphetamine about 1 mg per 1 kg of body weight thereof via belly injection and rotates round an animal gyroscope on 28th, 36th, 43rd and 52nd day respectively for right turn (clockwise) and left turn (counterclockwise), in which the number of rotations will be recorded.
# With reference to FIG. 5, the rat is given with amphetamine about 1 mg per 1 kg of body weight thereof via belly injection and further provided with Vanillyl alcohol about 30 mg. Next, the rat rotates round an animal gyroscope on 28th, 36th, 43rd and 52nd day respectively for right turn (clockwise) and left turn (counterclockwise), in which the number of rotations will be recorded.
compound,measurement,setting,value
"COc1cc(CO)ccc1O [Vanillyl alcohol, 4-hydroxy-3-methoxy-benzyl alcohol]",movements of the rat,"[1]; L-DOPA about 50 mg per 1 kg via belly injection plus Vanillyl alcohol about 30 mg, benserazide 30 mg per 1 kg 30 minutes before, days 28, 36, 52 (FIG. 7)",almost normal
same,behavioral unbalance between right and left sides induced by L-DOPA,"[1]; Vanillyl alcohol about 30 mg in combination with L-DOPA about 50 mg per 1 kg, benserazide pre-treatment (FIG. 7)",inhibit
same,number of rotations for right turn (clockwise),"[2]; amphetamine about 1 mg per 1 kg via belly injection plus Vanillyl alcohol about 30 mg, days 28, 36, 43, 52, effect since 43rd day, 52nd day most apparent (FIG. 5)",decreased gradually
same,behavioral asymmetry between right side and left side,"[2]; amphetamine about 1 mg per 1 kg via belly injection plus Vanillyl alcohol about 30 mg, effect since 43rd day, 52nd day most apparent (FIG. 5)",decreased apparently
"CC(N)Cc1ccccc1 (stereo not drawn) [amphetamine, reference compound]",number of rotations for left turn (counterclockwise),"[2]; amphetamine about 1 mg per 1 kg via belly injection alone, days 28, 36, 43, 52, symptom since 36th day (FIG. 4)",decreased gradually
same,behavioral asymmetry between right side and left side,"[2]; amphetamine about 1 mg per 1 kg via belly injection alone, symptom since 36th day (FIG. 4)",increased apparently
